IC50 data for six compounds are collected here from BindingDB's records for doi:10.1016/j.ejmech.2014.01.032 (University of Milan, 2014).

The assay in a line: Inhibition of acetylcholinesterase in rat brain homogenate after 15 mins by Ellman assay. (Ellman's reagent forms a yellow product with free thiols.)
Usually IC50 stands for the concentration that inhibits the measured activity by half. Higher therefore signals weaker potency in that assay. On to `CC(C)(CN1C(=O)c2cccc3cccc(c23)C1=O)C[N+](C)(C)CCCCCC[N+](C)(C)CCCN1C(=O)c2ccccc2C1=O` [Naphmethonium], for which the IC50 is 41.7 µM. The value for `C[N+](C)(CC#CCOC1=NOCC1)CCCCCCCC[N+](C)(C)CCCN1C(=O)c2ccccc2C1=O` was 19.5 µM.

`C[N+](C)(CC#CCOC1=NOCC1)CCCCCC[N+]1(C)CCC(N2C(=O)c3cccc4cccc(c34)C2=O)CC1` (stereo unspecified) registered a half-maximal inhibitory concentration (IC50) of 22.9 µM. For `C[N+](C)(CC#CCOC1=NOCC1)CCCCCCCC[N+](C)(C)CCCN1C(=O)c2cccc3cccc(c23)C1=O` the value was 10 µM. For `C[N+](C)(CC#CCOC1=NOCC1)CCCCCC[N+](C)(C)CCCN1C(=O)c2cccc3cccc(c23)C1=O` the value was 10.2 µM; for `C[N+](C)(CC#CCOC1=NOCC1)CCCCCCC[N+](C)(C)CCCN1C(=O)c2ccccc2C1=O`, 31.6 µM.
